# Data: patent US11932658B2 (BRISTOL-MYERS SQUIBB COMPANY, priority 2016, dated 2024)
# Biological target: T1, PAR4 (Homo sapiens, UniProt Q96RI0)
# T1 construct: expressed in transfected cells; host or cells: HEK293 PAR4 Clone 1.2A (BMS Arctic ID 383940)
# T1 sequence (Q96RI0 18-385): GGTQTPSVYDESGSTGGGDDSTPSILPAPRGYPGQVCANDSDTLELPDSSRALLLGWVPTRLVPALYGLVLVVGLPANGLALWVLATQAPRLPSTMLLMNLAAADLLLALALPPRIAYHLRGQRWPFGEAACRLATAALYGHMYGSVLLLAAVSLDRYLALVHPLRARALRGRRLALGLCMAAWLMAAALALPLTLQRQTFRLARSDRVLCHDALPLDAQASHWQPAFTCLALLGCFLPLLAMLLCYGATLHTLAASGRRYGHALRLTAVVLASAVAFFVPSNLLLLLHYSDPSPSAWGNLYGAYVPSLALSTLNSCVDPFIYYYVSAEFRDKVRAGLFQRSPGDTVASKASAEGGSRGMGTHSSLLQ
# Assay: PAR4 FLIPR assay (antagonism of agonist peptide-induced calcium mobilization)
# Type: cell-based
# Procedure, shortened: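 Antagonism was taken as block of calcium mobilization evoked by the agonist peptide H-Ala-Phe(4-F)-Pro-Gly-Trp-Leu-Val-Lys-Asn-[…]-NH2, added after 30 min room-temperature compound preincubation in dye-loaded PAR4-transfected HEK293 cells (endogenous PAR1). Fluorescence was read on FDSS, with compound addition alone used as the agonist counter-screen; values come from 11-point concentration-response curves.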
row,IC50 [nM],Structure (SMILES)
1,6.9,COc1cnc2c(-c3nc4cc(F)c5c(c4s3)C[C@H](COC(=O)Nc3cncnc3)O5)cc(C)cc2n1 [Example 185]
2,7.1,"COC(=O)NCC1Cc2c(ccc3nc(-c4cc(C)cc5nc(OC)cnc45)sc23)O1 (centres unmarked) [Example 191, Methyl ((2-(2-methoxy-7-methylquinoxalin-5-yl)-7,8-dihydrobenzofuro[5,4-d]thiazol-7-yl)methy 1)carbamate]"
3,22,"CCOC(=O)NCC1Cc2c(ccc3nc(-c4cc(C)cc5nc(OC)cnc45)sc23)O1 (centres unmarked) [Example 197, Ethyl ((2-(2-methoxy-7-methylquinoxalin-5-yl)-7,8-dihydrobenzofuro[5,4-d]thiazol-7-yl)methyl)carbamate]"
4,3.1,"COc1cnc2c(-c3nc4ccc5c(c4s3)CC(CNC(=O)OCC(C)C)O5)cc(C)cc2n1 (centres unmarked) [Example 198, Isobutyl ((2-(2-methoxy-7-methylquinoxalin-5-yl)-7,8-dihydrobenzofuro[5,4-d]thiazol-7-yl)methy 1)carbamate]"
5,6.5,"COc1cnc2c(-c3nc4cc(F)c5c(c4s3)C[C@@H](CNC(=O)OC(C)(C)C)O5)cc(C)cc2n1 [Example 202, (S)-tert-butyl ((5-fluoro-2-(2-methoxy-7-methylquinoxalin-5-yl)-7,8-dihydrobenzofuro[5,4-d]thiazol-7-yl)methyl)carbamate]"
6,1.1,"CNC(=O)c1ccc(NC(=O)OC[C@H]2Cc3c(c(F)cc4nc(-c5cc(C)cc6nc(OC)cnc56)sc34)O2)cc1 [Example 208, (R)-(5-fluoro-2-(2-methoxy-7-methylquinoxalin-5-yl)-7,8-dihydrobenzofuro[5,4-d]thiazo 1-7-yl)methyl (4-(methylcarbamoyl)phenyl)carbamate]"
7,26,"COc1cnc2c(-c3nc4cc(F)c5c(c4s3)C[C@@H](CNC(C)=O)O5)cc(C)cc2n1 [Example 209, (S)-N-((5-fluoro-2-(2-methoxy-7-methylquinoxalin-5-yl)-7,8-dihydrobenzofuro[5,4-d]thiazol-7-yl)methyl)acetamide]"
8,2.9,"COC(=O)NC[C@@H]1Cc2c(c(F)cc3nc(-c4cc(C)cc5nc(OC)cnc45)sc23)O1 [Example 210, (S)-methyl ((5-fluoro-2-(2-methoxy-7-methylquinoxalin-5-yl)-7,8-dihydrobenzofuro[5,4-d]thiazol-7-yl)methyl)carbamate]"
9,1.3,"COc1cnc2c(-c3nc4cc(F)c5c(c4s3)C[C@@H](CNC(=O)OCc3ccccc3)O5)cc(C)cc2n1 [Example 211, (S)-benzyl ((5-fluoro-2-(2-methoxy-7-methylquinoxalin-5-yl)-7,8-dihydrobenzofuro[5,4-d]thiazol-7-yl)methyl)carbamate]"
10,2.3,"COc1cnc2c(-c3nc4cc(F)c5c(c4s3)C[C@@H](CNC(=O)C(F)(F)F)O5)cc(C)cc2n1 [Example 215, (S)-2,2,2-trifluoro-N-((5-fluoro-2-(2-methoxy-7-methylquinoxalin-5-yl)-7,8-dihydrobenzofuro[5,4-d]thiazol-7-yl)methyl)acetamide]"
11,120,"COc1cnc2c(-c3nc4cc(F)c5c(c4s3)C[C@H](CNC(=O)Cc3ccccc3)O5)cc(C)cc2n1 [Example 217, (R)-N-((5-fluoro-2-(2-methoxy-7-methylquinoxalin-5-yl)-7,8-dihydrobenzofuro[5,4-d]thiazol-7-yl)methyl)-2-phenylacetamide]"
12,15,"COC(=O)NC[C@H]1Cc2c(c(F)cc3nc(-c4cc(C)cc5nc(OC)cnc45)sc23)O1 [Example 218, (R)-methyl ((5-fluoro-2-(2-methoxy-7-methylquinoxalin-5-yl)-7,8-dihydrobenzofuro[5,4-d]thiazol-7-yl)methyl)carbamate]"
13,180,"COc1cnc2c(-c3nc4cc(F)c5c(c4s3)C[C@H](CNC(C)=O)O5)cc(C)cc2n1 [Example 219, (R)-N-((5-fluoro-2-(2-methoxy-7-methylquinoxalin-5-yl)-7,8-dihydrobenzofuro[5,4-d]thiazol-7-yl)methyl)acetamide]"

# The remaining lines, values behind:
row,Structure (SMILES),IC50 [nM]
1,"COc1cnc2c(-c3nc4ccc5c(c4s3)CC(C)(C)O5)cc(C)cc2n1 [Example 186, 2-(2-methoxy-7-methylquinoxalin-5-yl)-7,7-dimethyl-7,8-dihydrobenzofuro[5,4-d]thiazole]",8.8
2,"COc1cnc2c(-c3nc4ccc5c(c4s3)C(C)C(CO)O5)cc(C)cc2n1 (centres unmarked) [Example 189, (2-(2-methoxy-7-methylquinoxalin-5-yl)-8-methyl-7,8-dihydrobenzofuro[5,4-d]thiazol-7-yl)methanol]",11
3,"COc1cnc2c(-c3nc4ccc5c(c4s3)CC(CNC(=O)Oc3ccccc3)O5)cc(C)cc2n1 (centres unmarked) [Example 192, Phenyl ((2-(2-methoxy-7-methylquinoxalin-5-yl)-7,8-dihydrobenzofuro[5,4-d]thiazol-7-yl)methy 1)carbamate]",8.3
4,"COc1cnc2c(-c3nc4ccc5c(c4s3)CC(CNC(=O)OCc3ccccc3)O5)cc(C)cc2n1 (centres unmarked) [Example 193, Benzyl ((2-(2-methoxy-7-methylquinoxalin-5-yl)-7,8-dihydrobenzofuro[5,4-d]thiazol-7-yl)methyl)carbamate]",5.3
5,"COc1cnc2c(-c3nc4ccc5c(c4s3)C[C@](C)(COC(=O)Nc3cnc(C)nc3)O5)cc(C)cc2n1 [Example 194, (R)-(2-(2-methoxy-7-methylquinoxalin-5-yl)-7-methyl-7,8-dihydrobenzofuro[5,4-d]thiazol-7-yl)methyl (2-methylpyrimidin-5-yl)carbamate]",2.5
6,"COc1cnc2c(-c3nc4ccc5c(c4s3)C[C@](C)(COC(=O)Nc3cccnc3)O5)cc(C)cc2n1 [Example 195, (R)-(2-(2-methoxy-7-methylquinoxalin-5-yl)-7-methyl-7,8-dihydrobenzofuro[5,4-d]thiazol-7-yl)methyl pyridin-3-ylcarbamate]",3.5
7,"COc1cnc2c(-c3nc4ccc5c(c4s3)C[C@](C)(COC(=O)Nc3cccc(C#N)c3)O5)cc(C)cc2n1 [Example 196, (R)-(2-(2-methoxy-7-methylquinoxalin-5-yl)-7-methyl-7,8-dihydrobenzofuro[5,4-d]thiazol-7-yl)methyl (3-cyanophenyl)carbamate]",1.6
8,"COc1cnc2c(-c3nc4cc(F)c5c(c4s3)CC(C)(C)O5)cc(C)cc2n1 [Example 200, 5-fluoro-2-(2-methoxy-7-methylquinoxalin-5-yl)-7,7-dimethyl-7,8-dihydrobenzofuro[5,4-d]thiazole]",7.9
9,"COc1cnc2c(-c3nc4cc(F)c5c(c4s3)C[C@H](COC(=O)Nc3cccc(C(=O)N(C)C)c3)O5)cc(C)cc2n1 [Example 203, (R)-(5-fluoro-2-(2-methoxy-7-methylquinoxalin-5-yl)-7,8-dihydrobenzofuro[5,4-d]thiazo 1-7-yl)methyl (3-(dimethylcarbamoyl)phenyl)carbamate]",2.3
10,"COc1cnc2c(-c3nc4cc(F)c5c(c4s3)C[C@H](COC(=O)Nc3ccc(C(=O)N(C)C)cc3)O5)cc(C)cc2n1 [Example 204, (R)-(5-fluoro-2-(2-methoxy-7-methylquinoxalin-5-yl)-7,8-dihydrobenzofuro[5,4-d]thiazo 1-7-yl)methyl (4-(dimethylcarbamoyl)phenyl)carbamate]",2.3
11,"COc1cnc2c(-c3nc4cc(F)c5c(c4s3)C[C@H](COC(=O)Nc3cncc(C(N)=O)c3)O5)cc(C)cc2n1 [Example 205, (R)-(5-fluoro-2-(2-methoxy-7-methylquinoxalin-5-yl)-7,8-dihydrobenzofuro[5,4-d]thiazo 1-7-yl)methyl (5-carbamoylpyridin-3-yl)carbamate]",1.3
12,"COc1cnc2c(-c3nc4cc(F)c5c(c4s3)C[C@H](COC(=O)Nc3ccc(-c4ncco4)cc3)O5)cc(C)cc2n1 [Example 207, (R)-(5-fluoro-2-(2-methoxy-7-methylquinoxalin-5-yl)-7,8-dihydrobenzofuro[5,4-d]thiazo 1-7-yl)methyl (4-(oxazol-2-yl)phenyl)carbamate]",2.2
13,"COc1cnc2c(-c3nc4cc(F)c5c(c4s3)C[C@@H](CNC(=O)Oc3ccccc3)O5)cc(C)cc2n1 [Example 212, (S)-phenyl ((5-fluoro-2-(2-methoxy-7-methylquinoxalin-5-yl)-7,8-dihydrobenzofuro[5,4-d]thiazol-7-yl)methyl)carbamate]",2.1
14,"COc1cnc2c(-c3nc4cc(F)c5c(c4s3)C[C@@H](CNC(=O)Oc3ccc(C)cc3)O5)cc(C)cc2n1 [Example 213, (S)-p-tolyl ((5-fluoro-2-(2-methoxy-7-methylquinoxalin-5-yl)-7,8-dihydrobenzofuro[5,4-d]thiazol-7-yl)methyl)carbamate]",3.6
15,"COc1cnc2c(-c3nc4cc(F)c5c(c4s3)C[C@@H](CNC(=O)Oc3ccc(Cl)cc3)O5)cc(C)cc2n1 [Example 214, (S)-4-chlorophenyl ((5-fluoro-2-(2-methoxy-7-methylquinoxalin-5-yl)-7,8-dihydrobenzofuro[5,4-d]thiazol-7-yl)methyl)carbamate]",26
16,"COc1ccc(OC(=O)NC[C@@H]2Cc3c(c(F)cc4nc(-c5cc(C)cc6nc(OC)cnc56)sc34)O2)cc1 [Example 216, (S)-4-methoxyphenyl ((5-fluoro-2-(2-methoxy-7-methylquinoxalin-5-yl)-7,8-dihydrobenzofuro[5,4-d]thiazol-7-yl)methyl)carbamate]",2.1
